Data on 13 compounds can be found in patent publication US20220016102A1, “ER PROTEIN REGULATORS AND USE THEREOF” (ShanghaiTech University, priority 2018, published 2022).

For the test, the target named is T1, ER protein (Homo sapiens, UniProt P03372).
T1 sequence (P03372 1-595): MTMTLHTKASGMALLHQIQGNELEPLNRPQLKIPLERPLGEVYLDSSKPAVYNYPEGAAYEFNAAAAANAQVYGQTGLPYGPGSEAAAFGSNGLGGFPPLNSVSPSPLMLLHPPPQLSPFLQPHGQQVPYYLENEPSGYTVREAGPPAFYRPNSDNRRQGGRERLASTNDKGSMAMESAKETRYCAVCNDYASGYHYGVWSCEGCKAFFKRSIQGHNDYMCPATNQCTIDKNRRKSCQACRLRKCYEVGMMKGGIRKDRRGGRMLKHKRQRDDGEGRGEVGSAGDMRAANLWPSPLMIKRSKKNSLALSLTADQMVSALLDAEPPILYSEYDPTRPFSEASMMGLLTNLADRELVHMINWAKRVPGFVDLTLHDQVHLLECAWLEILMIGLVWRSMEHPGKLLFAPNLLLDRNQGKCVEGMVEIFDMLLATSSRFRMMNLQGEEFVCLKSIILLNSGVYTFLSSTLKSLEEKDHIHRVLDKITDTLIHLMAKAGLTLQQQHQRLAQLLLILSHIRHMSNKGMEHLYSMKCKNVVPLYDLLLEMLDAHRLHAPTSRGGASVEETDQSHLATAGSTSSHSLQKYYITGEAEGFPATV
In words: Western blotting analysis of ER protein degradation in T47D cell line. Conditions: T47D cells; for DC50: degradation of ER protein, drug treatment for 16 hours, Western blot gray values vs DMSO control, read-out: DC50 (nM)/T47Dcell line. The test is classed as cell-based. Set-up: western blotting detection of the level of intracellular ER protein; endogenous in cells; host or cells: T47D. As to the method:
T47D cells were cultured in an incubator with 5% CO2 at 37° C. Complete medium was RPMI1640 supplemented with 10% Foetal bovine serum (FBS), 100 U/ml Penicillin and Streptomycin, and 0.77 μg/mL recombinant human insulin. Western blotting analysis of T47D cell line: • Cells were plated in a 24-well plate at a cell seeding […] of 1.5×10^5 cells/mL, with 1 ml cell suspensions per well. • After 24 h the cells were adherent, and the cells in each well were treated with 1 μL a certain concentration of ER protein regulators of the present disclosure. […] Afterwards, the membranes were block by using the Blocking Buffer, and the antibody incubation and development were performed. (The above procedures were all based on the antibody product manual of the manufacturer) DC50 value (the drug concentration required for degrading proteins by 50%, abbreviated as DC50) reads method: comparing the gray values of the Western blotting bands for the drug treatment with the gray values of the Western blotting band for the DMSO control, and reading the drug concentration range corresponding to the gray value of the Western blotting bands for the drug treatment which is equal to half of the gray value of the Western blotting band for the DMSO control. DC50 value could also be calculated as follows: using software ImageJ to quantify the gray values of the Western blotting bands for the drug treatment, fitting the relationship curve between drug concentrations and gray values, and from the fitted curve, calculating the drug concentration corresponding to half of the gray value of the Western blotting band for the DMSO control.
(In western blotting, separated proteins are transferred to a membrane and probed.)

Regarding `CCC(=C(c1ccc(O)cc1)c1ccc(OCCNC(=O)CCCCCCCC(=O)N[C@H](C(=O)N2C[C@H](O)C[C@H]2C(=O)NCc2ccc(-c3scnc3C)cc2)C(C)(C)C)cc1)c1ccc(O)cc1` [SIAIS208167, N1-(2-(4-(1,2-bis(4-hydroxyphenyl)but-1-en-1-yl)phenoxy)ethyl)-N9-((S)-1-((2S,4R)-4-hydroxy-2-((4-(4-methylthiazol-5-yl)benzyl)carbamoyl)pyrrolidin-1-yl)-3,3-dimethyl-1-oxobutan-2-yl)nonanediamide], the DC50 is under 50 nM.
On to `CCC(=C(c1ccc(O)cc1)c1ccc(OCCNC(=O)CCCCCCCCCC(=O)N[C@H](C(=O)N2C[C@H](O)C[C@H]2C(=O)NCc2ccc(-c3scnc3C)cc2)C(C)(C)C)cc1)c1ccc(O)cc1` [SIAIS208169, N1-(2-(4-(1,2-bis(4-hydroxyphenyl)but-1-en-1-yl)phenoxy)ethyl)-N11-((S)-1-((2S,4R)-4-hydroxy-2-((4-(4-methylthiazol-5-yl)benzyl)carbamoyl)pyrrolidin-1-yl)-3,3-dimethyl-1-oxobutan-2-yl)undecanediamide], for which the DC50 was under 50 nM.
With `CCC(=C(c1ccc(O)cc1)c1ccc(OCCNC(=O)CCN2CCN(CCNc3cccc4c3C(=O)N(C3CCC(=O)NC3=O)C4=O)CC2)cc1)c1ccc(O)cc1` (stereo not shown) [SIAIS208172, N-(2-(4-(1,2-bis(4-hydroxyphenyl)but-1-en-1-yl)phenoxy)ethyl)-3-(4-(2-((2-(2,6-dioxopiperidin-3-yl)-1,3-dioxoisoindolin-4-yl)amino)ethyl)piperazin-1-yl)propanamide], the DC50 is under 50 nM.
Consider `CCC(=C(c1ccc(O)cc1)c1ccc(OCCNC(=O)CCOCCOCCOCCC(=O)N[C@H](C(=O)N2C[C@H](O)C[C@H]2C(=O)NCc2ccc(-c3scnc3C)cc2)C(C)(C)C)cc1)c1ccc(O)cc1` [SIAIS208174, (2S,4R)-1-((S)-19-(4-(1,2-bis(4-hydroxyphenyl)but-1-en-1-yl)phenoxy)-2-(tert-butyl)-4,16-dioxo-7,10,13-trioxa-3,17-diazanonadecanoyl)-4-hydroxy-N-(4-(4-methylthiazol-5-yl)benzyl)pyrrolidine-2-carboxamide], for which the DC50 is under 50 nM.
The same measure, in the same setting: the result for `O=C(CCCCCCNc1cccc2c1CN(C1CCC(=O)NC1=O)C2=O)NCCOc1ccc(C(=C(CCCl)c2ccccc2)c2ccc(O)cc2)cc1` (stereo not shown) [SIAIS251033, N-(2-(4-(4-chloro-1-(4-hydroxyphenyl)-2-phenylbut-1-en-1-yl)phenoxy)ethyl)-7-((2-(2,6-dioxopiperidin-3-yl)-1-oxoisoindolin-4-yl)amino)heptanamide] reads 50 nM; that for `Cc1ncsc1-c1ccc(CNC(=O)[C@@H]2C[C@@H](O)CN2C(=O)[C@@H](NC(=O)CCCC(=O)N2CCN(CCOc3ccc(C(=C(CCCl)c4ccccc4)c4ccc(O)cc4)cc3)CC2)C(C)(C)C)cc1` [SIAIS251042, (2S,4R)-1-((S)-2-(5-(4-(2-(4-(4-chloro-1-(4-hydroxyphenyl)-2-phenylbut-1-en-1-yl)phenoxy)ethyl)piperazin-1-yl)-5-oxopentanamido)-3,3-dimethylbutanoyl)-4-hydroxy-N-(4-(4-methylthiazol-5-yl)benzyl)pyrrolidine-2-carboxamide], under 50 nM; that for `Cc1ncsc1-c1ccc(CNC(=O)[C@@H]2C[C@@H](O)CN2C(=O)[C@@H](NC(=O)CCCCC(=O)N2CCN(CCOc3ccc(C(=C(CCCl)c4ccccc4)c4ccc(O)cc4)cc3)CC2)C(C)(C)C)cc1` [SIAIS251043, (2S,4R)-1-((S)-2-(6-(4-(2-(4-(4-chloro-1-(4-hydroxyphenyl)-2-phenylbut-1-en-1-yl)phenoxy)ethyl)piperazin-1-yl)-6-oxohexanamido)-3,3-dimethylbutanoyl)-4-hydroxy-N-(4-(4-methylthiazol-5-yl)benzyl)pyrrolidine-2-carboxamide], under 50 nM.
On the same count and under the same terms, the result for `Cc1ncsc1-c1ccc(CNC(=O)[C@@H]2C[C@@H](O)CN2C(=O)[C@@H](NC(=O)CCCCCCCC(=O)N2CCN(CCOc3ccc(C(=C(CCCl)c4ccccc4)c4ccc(O)cc4)cc3)CC2)C(C)(C)C)cc1` [SIAIS251046, (2S,4R)-1-((S)-2-(9-(4-(2-(4-(4-chloro-1-(4-hydroxyphenyl)-2-phenylbut-1-en-1-yl)phenoxy)ethyl)piperazin-1-yl)-9-oxononanamido)-3,3-dimethylbutanoyl)-4-hydroxy-N-(4-(4-methylthiazol-5-yl)benzyl)pyrrolidine-2-carboxamide] reads under 50 nM; that for `Cc1ncsc1-c1ccc(CNC(=O)[C@@H]2C[C@@H](O)CN2C(=O)[C@@H](NC(=O)CCCCCCCCC(=O)N2CCN(CCOc3ccc(C(=C(CCCl)c4ccccc4)c4ccc(O)cc4)cc3)CC2)C(C)(C)C)cc1` [SIAIS251047, (2S,4R)-1-((S)-2-(10-(4-(2-(4-(4-chloro-1-(4-hydroxyphenyl)-2-phenylbut-1-en-1-yl)phenoxy)ethyl)piperazin-1-yl)-10-oxodecanamido)-3,3-dimethylbutanoyl)-4-hydroxy-N-(4-(4-methylthiazol-5-yl)benzyl)pyrrolidine-2-carboxamide], under 50 nM.
Same read-out and setting: the result for `Cc1ncsc1-c1ccc(CNC(=O)[C@@H]2C[C@@H](O)CN2C(=O)[C@@H](NC(=O)CCOCCOCCC(=O)N2CCN(CCOc3ccc(C(=C(CCCl)c4ccccc4)c4ccc(O)cc4)cc3)CC2)C(C)(C)C)cc1` [SIAIS251049, (2S,4R)-1-((S)-2-(3-(2-(3-(4-(2-(4-(4-chloro-1-(4-hydroxyphenyl)-2-phenylbut-1-en-1-yl)phenoxy)ethyl)piperazin-1-yl)-3-oxopropoxy)ethoxy)propanamido)-3,3-dimethylbutanoyl)-4-hydroxy-N-(4-(4-methylthiazol-5-yl)benzyl)pyrrolidine-2-carboxamide] reads under 50 nM; that for `Cc1ncsc1-c1ccc(CNC(=O)[C@@H]2C[C@@H](O)CN2C(=O)[C@@H](NC(=O)CCOCCOCCOCCC(=O)N2CCN(CCOc3ccc(C(=C(CCCl)c4ccccc4)c4ccc(O)cc4)cc3)CC2)C(C)(C)C)cc1` [SIAIS251050, (2S,4R)-1-((S)-2-(tert-butyl)-16-(4-(2-(4-(4-chloro-1-(4-hydroxyphenyl)-2-phenylbut-1-en-1-yl)phenoxy)ethyl)piperazin-1-yl)-4,16-dioxo-7,10,13-trioxa-3-azahexadecanoyl)-4-hydroxy-N-(4-(4-methylthiazol-5-yl)benzyl)pyrrolidine-2-carboxamide], under 50 nM.
`Cc1ncsc1-c1ccc(CNC(=O)[C@@H]2C[C@@H](O)CN2C(=O)[C@@H](NC(=O)CCOCCOCCOCCOCCC(=O)N2CCN(CCOc3ccc(C(=C(CCCl)c4ccccc4)c4ccc(O)cc4)cc3)CC2)C(C)(C)C)cc1` [SIAIS251051, (2S,4R)-1-((S)-2-(tert-butyl)-19-(4-(2-(4-(4-chloro-1-(4-hydroxyphenyl)-2-phenylbut-1-en-1-yl)phenoxy)ethyl)piperazin-1-yl)-4,19-dioxo-7,10,13,16-tetraoxa-3-azanonadecanoyl)-4-hydroxy-N-(4-(4-methylthiazol-5-yl)benzyl)pyrrolidine-2-carboxamide]: the DC50 was under 50 nM.
As for `NCCOc1ccc(C(=C(CCCl)c2ccccc2)c2ccc(O)cc2)cc1` [Toremifene derivative B, 4-(1-(4-(2-aminoethoxy)phenyl)-4-chloro-2-phenylbut-1-en-1-yl)phenol, reference compound], under “FIGS. 1(A)-(O)”, the “Degradation of the ER protein in the T47D cell line (Western blotting)” value is on record as “did not degrade the ER protein”.
